Laboratory results: paper PMC10917278, “Structural insights into the modulation Of SOD1 aggregation By a fungal metabolite Phialomustin-B: Therapeutic potential in ALS” (PLOS ONE, 2024)

Molecular target: T1, SOD1^A4V (Homo sapiens, UniProt P00441, A5V)
T1 construct: The full-length constructs of SOD1-wild type (aa: 1–145) and its corresponding SOD1 disease mutant, SOD1^A4V; His-tag (cleaved yes); made in house; host or cells: E. coli BL21 DE3
Assay: Analytical size-exclusion chromatography (SEC) aggregation assay, SOD1^A4V
Format: biochemical
Method: Fig 6 Aggregation studies of metallated and reduced SOD1^WT and SOD1^A4V on treatment with PB. ThT fluorescence was monitored during the co-incubation of metallated SOD1^WT (50 μM) (a) or SOD1^A4V (50 μM) (b) with PB at 1:30 molar ratio at 37 °C with continuous shaking, under reduced conditions. The values were normalized to the maximal ThT intensity elicited by SOD1^WT or SOD1^A4V and fitted to a Boltzmann sigmoidal equation. The control and PB-treated species were compared to analyse the effects of PB on the aggregation of SOD1^WT and SOD1^A4V. Error bars indicate the standard deviation. Analytical SEC of metallated SOD1^WT (50 μM) (c) and SOD1^A4V (50 μM) (d) with PB were analyzed under reducing conditions before and after 24 hrs and 48 hrs incubation at 37 °C. The first peak eluting at the volume was denoted as oligomerized SOD1^WT/SOD1^A4V (L). The second, third, and fourth peaks were calculated as trimer (T), dimer (D), and monomer (M) species of SOD1^WT/SOD1^A4V running at 14.5 ml, 15.7 ml, and 16.5 ml, respectively. […]
Fig 7 Aggregation studies of de-metallated and reduced SOD1^WT and SOD1^A4V on treatment with PB. ThT fluorescence was monitored during the co-incubation of de-metallated SOD1^WT (50 μM) (a) or SOD1^A4V (50 μM) (b) with PB at 1:30 molar ratio at 37 °C with continuous shaking, under reduced conditions. […] Analytical SEC of de-metallated SOD1^WT (50 μM) (a) and SOD1^A4V (50 μM) (b) with PB were analysed under reducing conditions before and after 24 hrs and 48 hrs incubation at 37 °C. […] The second, third, and fourth peaks were calculated as trimer (T), dimer (D), and monomer (M) species of SOD1^WT/SOD1^A4V running at 14.5 ml, 15.7 ml, and 16.5 ml, respectively. […]
The anti-aggregation activity of PB was validated on the SOD1^WT and the disease mutant (SOD1^A4V) through size exclusion chromatography. The analytical size-exclusion chromatography is a gold standard method for comprehensively evaluating protein species through their molecular weight variations detected by the protein peaks’ elution volume (Ve). […]

T1 sequence (P00441 whole entry A5V): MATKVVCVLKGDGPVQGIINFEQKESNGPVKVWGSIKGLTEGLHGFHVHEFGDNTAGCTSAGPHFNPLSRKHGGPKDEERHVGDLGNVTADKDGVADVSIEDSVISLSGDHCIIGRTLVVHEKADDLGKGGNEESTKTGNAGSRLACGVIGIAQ

trimer population (SEC) (De-metallated (EDTA) SOD1^A4V 50 μM, PB 30X, reducing conditions): reduces the trimer population
SMILES: CCCC[C@H](C)/C=C(C)/C=C/C(=O)O [PB, (S, 2E, 4E)-4,6-dimethyldeca-2,4-dienoic acid]
trimer populations (SEC) (Metallated SOD1^A4V 50 μM, PB 60X, reducing conditions): trimer populations were significantly reduced
formation of toxic trimer species (SEC) (Metallated SOD1^A4V 50 μM, PB at a ratio of 1:30, reducing conditions): visibly reduced the formation of toxic trimer species
